The results in this text go back to article PMC3252375 (PLoS Pathogens, 2012).

Test [1] relates to LncP (Legionella nucleotide carrier Protein). The format is biochemical, Legionella pneumophila.
The test system is the same in test [2].

Read-outs that look alike come from different tables or passages of the source.

Broadly, the Km is the substrate concentration at which the rate is half of its maximum. Turning to `Nc1nc2c(ncn2[C@@H]2O[C@H](COP(=O)(O)OP(=O)(O)OP(=O)(O)O)[C@@H](O)[C@H]2O)c(=O)[nH]1` [GTP], in test [1], the Km was 183 ± 32 µM. Consider `Nc1ncnc2c1ncn2[C@@H]1O[C@H](COP(=O)(O)OP(=O)(O)OP(=O)(O)O)[C@@H](O)[C@H]1O` [ATP], for which the Km in test [2] turned out to be 190 ± 37 µM.
